Experimental data as given in ChEMBL document CHEMBL1156067, “Pyrimidine-based antagonists of h-MCH-R1 derived from ATC0175: in vitro profiling and in vivo evaluation” (Bioorg Med Chem Lett, 2009).
The source made the active and inactive calls. The calls are words filed in the database; no cut-off is given here.

tested on: Rattus norvegicus; assay: Reduction in body weight in diet-induced obese Wistar rat chronic feeding model at 5 mg/kg, po once daily after 28 days relative to control; assay type: functional; parameters: scale not given: the % may be the effect or the level left; conditions: not given

Row | Structure (SMILES) | Activity
1 | Cc1cnc(N[C@H]2CC[C@@H](CNC(=O)c3cc(C(F)(F)F)cc(C(F)(F)F)c3)CC2)nc1N(C)C | -5.4%

tested on: Rattus norvegicus; assay: Reduction in food intake in diet-induced obese Wistar rat chronic feeding model at 6 mg/kg, po once daily measured after 14 days; assay type: functional, organism-based; parameters: dose 6 mg/kg; conditions: not given

Row | Structure (SMILES) | Activity
2 | CC(C)CC(N(C)C)C1(c2ccc(Cl)cc2)CCC1 (stereo not given) | inactive

tested on: not listed separately; assay: Drug level in Sprague-Dawley rat brain at 10 mg/kg, po after 4 hrs; assay type: ADME, organism-based; parameters: dose 10 mg/kg, route oral; conditions: not given

Row | Structure (SMILES) | concentration at 4 h
3 | Cc1cnc(N[C@H]2CC[C@@H](CNC(=O)c3cc(C(F)(F)F)cc(C(F)(F)F)c3)CC2)nc1N(C)C | 10 ng/g

target: T1, Alpha-2A adrenergic receptor (Homo sapiens, UniProt P08913); assay: Displacement of [3H]MK-912 from human adrenergic alpha2A receptor; conditions: not given
T1 sequence (P08913 whole entry): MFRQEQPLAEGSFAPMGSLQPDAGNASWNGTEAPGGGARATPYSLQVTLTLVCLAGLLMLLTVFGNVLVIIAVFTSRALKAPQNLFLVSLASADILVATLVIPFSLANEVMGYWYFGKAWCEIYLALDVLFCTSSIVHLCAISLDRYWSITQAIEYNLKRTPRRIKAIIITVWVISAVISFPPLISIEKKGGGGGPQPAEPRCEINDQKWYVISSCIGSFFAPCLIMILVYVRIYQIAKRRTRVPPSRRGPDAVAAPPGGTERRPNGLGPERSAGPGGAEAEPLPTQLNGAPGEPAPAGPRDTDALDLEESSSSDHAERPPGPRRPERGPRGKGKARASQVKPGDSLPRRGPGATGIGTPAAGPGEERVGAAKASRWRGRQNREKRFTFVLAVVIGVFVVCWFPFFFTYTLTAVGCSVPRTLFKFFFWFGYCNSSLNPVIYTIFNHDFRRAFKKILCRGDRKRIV

Row | Structure (SMILES) | IC50
4 | Cc1cnc(N[C@H]2CC[C@@H](CNC(=O)c3cc(C(F)(F)F)cc(C(F)(F)F)c3)CC2)nc1N(C)C | 0.31 µM

tested on: Rattus norvegicus; assay: Reduction in food intake in diet-induced obese Wistar rat chronic feeding model at 10 mg/kg, po once daily after 2 days; assay type: functional, organism-based; parameters: dose 10 mg/kg; conditions: not given

Row | Structure (SMILES) | Activity
5 | Cc1cnc(N[C@H]2CC[C@@H](CNC(=O)c3cc(C(F)(F)F)cc(C(F)(F)F)c3)CC2)nc1N(C)C | Active

tested on: Rattus norvegicus; assay: Reduction in body weight in diet-induced obese Wistar rat chronic feeding model at 15 mg/kg, po once daily up to 14 days measured after recovery period; assay type: functional, organism-based; parameters: dose 15 mg/kg; conditions: not given

Row | Structure (SMILES) | Activity
6 | Cc1cnc(N[C@H]2CC[C@@H](CNC(=O)c3cc(C(F)(F)F)cc(C(F)(F)F)c3)CC2)nc1N(C)C | inactive

tested on: Rattus norvegicus; assay: Reduction in food intake in diet-induced obese Wistar rat chronic feeding model at 15 mg/kg, po once daily up to 14 days measured after recovery period; assay type: functional, organism-based; parameters: dose 15 mg/kg; conditions: not given

Row | Structure (SMILES) | Activity
7 | Cc1cnc(N[C@H]2CC[C@@H](CNC(=O)c3cc(C(F)(F)F)cc(C(F)(F)F)c3)CC2)nc1N(C)C | inactive

tested on: Rattus norvegicus; assay: Toxicity in rat at 100 mg/kg, po once daily after 14 days; conditions: in vivo, 336 h

Row | Structure (SMILES) | Activity
8 | Cc1cnc(N[C@H]2CC[C@@H](CNC(=O)c3cc(C(F)(F)F)cc(C(F)(F)F)c3)CC2)nc1N(C)C | Non-toxic

target: Melanin-concentrating hormone receptor 1 (Homo sapiens, UniProt Q99705); assay: Antagonist activity at CART form of human MCH1 receptor expressed in HEK293 cells coexpressing Galphaq assessed as inhibition of MCH-induced intracellular calcium level by FLIPR assay; assay type: functional, cell-based; conditions: not given
Sequence (Q99705 whole entry, looked up): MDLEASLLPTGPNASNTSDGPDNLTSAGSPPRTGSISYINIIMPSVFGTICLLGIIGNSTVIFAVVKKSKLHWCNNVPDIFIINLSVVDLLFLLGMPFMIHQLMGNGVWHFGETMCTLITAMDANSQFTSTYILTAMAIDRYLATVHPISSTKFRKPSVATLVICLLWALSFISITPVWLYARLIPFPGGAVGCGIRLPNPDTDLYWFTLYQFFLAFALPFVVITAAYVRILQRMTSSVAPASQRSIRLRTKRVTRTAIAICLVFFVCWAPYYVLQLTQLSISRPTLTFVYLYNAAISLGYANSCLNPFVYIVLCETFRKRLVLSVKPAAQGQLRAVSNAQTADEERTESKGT

Row | Structure (SMILES) | IC50
9 | Cc1cnc(N[C@H]2CC[C@@H](CNC(=O)c3cc(C(F)(F)F)cc(C(F)(F)F)c3)CC2)nc1N(C)C | 0.005 µM

tested on: Rattus norvegicus; assay: Reduction in food intake in diet-induced obese Wistar rat chronic feeding model at 6 mg/kg, po once daily after 8 days; assay type: functional, organism-based; parameters: dose 6 mg/kg; conditions: not given

Row | Structure (SMILES) | Activity
10 | CC(C)CC(N(C)C)C1(c2ccc(Cl)cc2)CCC1 (stereo not given) | Active

target: T2, 5-hydroxytryptamine receptor 1A (Homo sapiens, UniProt P08908); assay: Inhibition of human 5HT1A; conditions: not given
T2 sequence (P08908 whole entry): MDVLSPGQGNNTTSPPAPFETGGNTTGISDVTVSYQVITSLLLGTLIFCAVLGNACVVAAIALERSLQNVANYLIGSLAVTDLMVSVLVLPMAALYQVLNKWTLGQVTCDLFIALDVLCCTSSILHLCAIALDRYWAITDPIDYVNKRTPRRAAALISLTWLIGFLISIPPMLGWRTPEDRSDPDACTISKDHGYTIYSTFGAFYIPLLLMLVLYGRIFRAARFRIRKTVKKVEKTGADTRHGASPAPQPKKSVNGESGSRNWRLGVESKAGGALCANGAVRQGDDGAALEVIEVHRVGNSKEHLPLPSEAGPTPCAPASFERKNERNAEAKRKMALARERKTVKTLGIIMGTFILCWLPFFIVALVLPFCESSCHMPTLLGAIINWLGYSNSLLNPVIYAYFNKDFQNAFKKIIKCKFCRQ

Row | Structure (SMILES) | IC50
11 | Cc1cnc(N[C@H]2CC[C@@H](CNC(=O)c3cc(C(F)(F)F)cc(C(F)(F)F)c3)CC2)nc1N(C)C | 4.8 µM

target: T3, Alpha-1A adrenergic receptor (Homo sapiens, UniProt P35348); assay: Displacement of [3H]prazosin from human adrenergic alpha1A receptor; conditions: not given
T3 sequence (P35348 whole entry): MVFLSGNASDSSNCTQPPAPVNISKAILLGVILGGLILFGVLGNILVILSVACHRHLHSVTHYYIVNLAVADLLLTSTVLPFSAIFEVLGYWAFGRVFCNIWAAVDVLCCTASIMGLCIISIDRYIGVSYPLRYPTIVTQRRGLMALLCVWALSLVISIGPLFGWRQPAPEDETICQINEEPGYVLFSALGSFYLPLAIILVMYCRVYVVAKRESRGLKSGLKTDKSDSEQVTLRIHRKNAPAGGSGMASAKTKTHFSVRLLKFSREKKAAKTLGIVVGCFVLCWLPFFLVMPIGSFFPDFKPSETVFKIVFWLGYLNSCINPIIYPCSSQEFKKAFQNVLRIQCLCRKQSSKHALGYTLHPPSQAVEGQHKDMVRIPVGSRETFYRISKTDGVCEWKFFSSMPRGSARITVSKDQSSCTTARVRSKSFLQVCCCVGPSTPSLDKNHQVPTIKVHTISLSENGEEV

Row | Structure (SMILES) | IC50
12 | Cc1cnc(N[C@H]2CC[C@@H](CNC(=O)c3cc(C(F)(F)F)cc(C(F)(F)F)c3)CC2)nc1N(C)C | 3.2 µM

tested on: Rattus norvegicus; assay: Reduction in body weight in diet-induced obese Wistar rat chronic feeding model at 10 mg/kg, po once daily up to 28 days measured after 2 weeks of recovery period; assay type: functional, organism-based; parameters: dose 10 mg/kg; conditions: not given

Row | Structure (SMILES) | Activity
13 | Cc1cnc(N[C@H]2CC[C@@H](CNC(=O)c3cc(C(F)(F)F)cc(C(F)(F)F)c3)CC2)nc1N(C)C | inactive

tested on: not listed separately; assay: Drug level in Sprague-Dawley rat brain at 10 mg/kg, po after 2 hrs; assay type: ADME, organism-based; parameters: dose 10 mg/kg, route oral; conditions: not given

Row | Structure (SMILES) | concentration at 2 h
14 | Cc1cnc(N[C@H]2CC[C@@H](CNC(=O)c3cc(C(F)(F)F)cc(C(F)(F)F)c3)CC2)nc1N(C)C | 9 ng/g

target: 5-hydroxytryptamine receptor 2B (Homo sapiens, UniProt P41595); assay: Displacement of [3H]rauwolsine from human 5HT2B receptor; conditions: not given
Sequence (P41595 whole entry): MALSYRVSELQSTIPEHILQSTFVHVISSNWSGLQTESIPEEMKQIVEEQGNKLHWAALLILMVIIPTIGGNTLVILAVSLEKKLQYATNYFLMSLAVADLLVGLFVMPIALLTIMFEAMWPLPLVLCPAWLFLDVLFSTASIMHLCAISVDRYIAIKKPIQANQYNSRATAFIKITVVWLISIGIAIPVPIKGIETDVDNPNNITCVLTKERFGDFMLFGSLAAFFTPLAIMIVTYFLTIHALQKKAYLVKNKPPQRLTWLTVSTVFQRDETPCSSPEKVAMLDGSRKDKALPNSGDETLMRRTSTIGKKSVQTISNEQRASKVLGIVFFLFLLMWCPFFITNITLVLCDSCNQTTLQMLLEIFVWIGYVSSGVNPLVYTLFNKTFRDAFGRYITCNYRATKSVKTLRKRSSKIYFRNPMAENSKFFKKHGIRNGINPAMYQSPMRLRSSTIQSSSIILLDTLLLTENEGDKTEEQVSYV

Row | Structure (SMILES) | IC50
15 | Cc1cnc(N[C@H]2CC[C@@H](CNC(=O)c3cc(C(F)(F)F)cc(C(F)(F)F)c3)CC2)nc1N(C)C | 3.1 µM

tested on: Rattus norvegicus; assay: Reduction in food intake in diet-induced obese Wistar rat chronic feeding model at 10 mg/kg, po once daily up to 28 days measured after 2 weeks of recovery period; assay type: functional, organism-based; parameters: dose 10 mg/kg; conditions: not given

Row | Structure (SMILES) | Activity
16 | Cc1cnc(N[C@H]2CC[C@@H](CNC(=O)c3cc(C(F)(F)F)cc(C(F)(F)F)c3)CC2)nc1N(C)C | inactive

tested on: Rattus norvegicus; assay: Reduction in body weight in diet-induced obese Wistar rat chronic feeding model at 1 mg/kg, po once daily after 28 days; assay type: functional, organism-based; parameters: dose 1 mg/kg; conditions: not given

Row | Structure (SMILES) | Activity
17 | Cc1cnc(N[C@H]2CC[C@@H](CNC(=O)c3cc(C(F)(F)F)cc(C(F)(F)F)c3)CC2)nc1N(C)C | inactive

target: Histamine H1 receptor (Homo sapiens, UniProt P35367); assay: Displacement of [3H]pyrilamine from human histamine H1 receptor; conditions: not given
Sequence (P35367 whole entry): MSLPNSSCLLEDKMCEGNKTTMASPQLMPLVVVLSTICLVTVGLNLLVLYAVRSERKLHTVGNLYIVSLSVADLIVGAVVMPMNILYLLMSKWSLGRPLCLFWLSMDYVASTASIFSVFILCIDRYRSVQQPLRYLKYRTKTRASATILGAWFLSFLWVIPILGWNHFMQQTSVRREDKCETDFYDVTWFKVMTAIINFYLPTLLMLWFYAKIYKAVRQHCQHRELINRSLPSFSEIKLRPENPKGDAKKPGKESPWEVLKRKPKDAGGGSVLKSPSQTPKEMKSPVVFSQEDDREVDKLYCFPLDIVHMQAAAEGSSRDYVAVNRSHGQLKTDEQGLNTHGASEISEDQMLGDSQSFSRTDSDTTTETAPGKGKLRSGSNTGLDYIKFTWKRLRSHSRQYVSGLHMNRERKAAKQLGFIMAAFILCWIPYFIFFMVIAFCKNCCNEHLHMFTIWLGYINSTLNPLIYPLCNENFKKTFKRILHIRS

Row | Structure (SMILES) | IC50
18 | Cc1cnc(N[C@H]2CC[C@@H](CNC(=O)c3cc(C(F)(F)F)cc(C(F)(F)F)c3)CC2)nc1N(C)C | > 10 µM

tested on: Rattus norvegicus; assay: Reduction in body weight in diet-induced obese Wistar rat chronic feeding model at 10 mg/kg, po once daily after 28 days relative to control; assay type: functional; parameters: scale not given: the % may be the effect or the level left; conditions: not given

Row | Structure (SMILES) | Activity
19 | Cc1cnc(N[C@H]2CC[C@@H](CNC(=O)c3cc(C(F)(F)F)cc(C(F)(F)F)c3)CC2)nc1N(C)C | 17%

tested on: Rattus norvegicus; assay: Reduction in food intake in diet-induced obese Wistar rat chronic feeding model at 1 mg/kg, po once daily after 28 days; assay type: functional, organism-based; parameters: dose 1 mg/kg; conditions: not given

Row | Structure (SMILES) | Activity
20 | Cc1cnc(N[C@H]2CC[C@@H](CNC(=O)c3cc(C(F)(F)F)cc(C(F)(F)F)c3)CC2)nc1N(C)C | inactive

tested on: Rattus norvegicus; assay: Reduction in food intake in diet-induced obese Wistar rat chronic feeding model at 5 mg/kg, po once daily after 28 days; assay type: functional, organism-based; parameters: dose 5 mg/kg; conditions: not given

Row | Structure (SMILES) | Activity
21 | Cc1cnc(N[C@H]2CC[C@@H](CNC(=O)c3cc(C(F)(F)F)cc(C(F)(F)F)c3)CC2)nc1N(C)C | inactive

tested on: not listed separately; assay: Plasma concentration in Sprague-Dawley rat at 10 mg/kg, po after 4 hrs; assay type: ADME, organism-based; parameters: dose 10 mg/kg, route oral; conditions: not given

Row | Structure (SMILES) | concentration at 4 h
22 | Cc1cnc(N[C@H]2CC[C@@H](CNC(=O)c3cc(C(F)(F)F)cc(C(F)(F)F)c3)CC2)nc1N(C)C | 63 ng/mL

tested on: not listed separately; assay: Plasma concentration in Sprague-Dawley rat at 10 mg/kg, po after 2 hrs; assay type: ADME, organism-based; parameters: dose 10 mg/kg, route oral; conditions: not given

Row | Structure (SMILES) | concentration at 2 h
23 | Cc1cnc(N[C@H]2CC[C@@H](CNC(=O)c3cc(C(F)(F)F)cc(C(F)(F)F)c3)CC2)nc1N(C)C | 50 ng/mL

tested on: Rattus norvegicus; assay: Reduction in food intake in diet-induced obese Wistar rat chronic feeding model at 15 mg/kg, po once daily after 3 days; assay type: functional, organism-based; parameters: dose 15 mg/kg; conditions: not given

Row | Structure (SMILES) | Activity
24 | Cc1cnc(N[C@H]2CC[C@@H](CNC(=O)c3cc(C(F)(F)F)cc(C(F)(F)F)c3)CC2)nc1N(C)C | Active

tested on: Rattus norvegicus; assay: Reduction in body weight in diet-induced obese Wistar rat chronic feeding model at 15 mg/kg, po once daily after 14 days relative to control; assay type: functional; parameters: scale not given: the % may be the effect or the level left; conditions: not given

Row | Structure (SMILES) | Activity
25 | Cc1cnc(N[C@H]2CC[C@@H](CNC(=O)c3cc(C(F)(F)F)cc(C(F)(F)F)c3)CC2)nc1N(C)C | >15%
